Experimental data as given in patent US9155761B2, “Method for the treatment of cancer” (UNIVERSITY COLLEGE CORK, NATIONAL UNIVERSITY OF IRELAND, …, priority 2009, dated 2015).
“Also recorded” adds a separate entry of the source. Like-named read-outs stand apart in the source and are kept apart here. Residues, ends and D or L forms follow the SMILES beside them. *: point of attachment. Cbz = O=C(OCc1ccccc1)*; CH2F = FC*

Columns and labels:
OE21 [1] = test system: OE21
Protocol: (§1) Morphological features of cells treated with 5-fluorouracil (5-FU)/cisplatin, without and with 3-MA, LY294002, Bafilomycin, Lithium chloride, rapamycin or HA14-I were examined by light microscopy. Morphologies of treated cells were examined 24 and 48 hours post treatment, treatment times are referred to in figure legends. Aliquots of vehicle control and drug treated cells were cytospun onto glass slides and stained with Rapi-Diff (Braidwood laboratories, UK). The extent of apoptotic and non-apoptotic cell death was determined by counting the cells in at least three fields of view per slide, with an average of ˜100 cells per field. Apoptotic cell death is characterized by the presence of two or more of the following morphological features: cell shrinkage, chromatin condensation, DNA degradation and fragmentation into ‘apoptotic bodies’, within an intact plasma membrane. Autophagic cell death was identified by clear elevation of cytoplasmic vesicles, loss of cytoplasmic material, pyknosis of the nuclear material and an intact nuclear membrane. Cytospin images are representative of at least three independent experiments.

KYSE450 [2] = assay: Evaluation of cell death morphology by light microscopy; assay type: cell-based, human
Protocol: as §1

KYSE450 [3] = assay type: cell-based, human
Protocol: (§2) Viability of esophageal cells was assessed using the MTT reduction assay. Cells are seeded at 2×10^4 (OE33/OE19) and 1×10^4 (OE21/KYSE450) cells per cm^2, treated for 48-96 hours and incubated for an additional 60 minutes at 37° C. in 0.5 mg/ml MTT dye. Viable, metabolizing cells reduce MTT dye, producing a dark formazan product, with absorbance read at 562 nm, reference wavelength 620 nm. To assess recovery, at 48 hours post treatment, in replicate plates (identical seeding & treatment times), all drugs were removed, culture medium was replaced, and these cells were cultured for a further 48-96 hours, to monitor their ability to recover and MTT assay was repeated.
(§3) In analysis of MTT data, values are presented as the Mean absorbance+/−Standard Error of the Mean (S.E.M) for four independent experiments. Statistical analysis was performed with paired Student's t-test. Values of p<0.05 were considered statistically significant. Asterisks indicate the level of significance.

OE21 [4] = assay: MTT viability and recovery assay; assay type: cell-based, human
Protocol: as §2, §3

LC3 in OE19 cells = assay: LC3 / GFP-LC3 processing and distribution (Western blot, fluorescence microscopy); assay type: cell-based, human
Protocol: (§4) Total cellular protein extracts were prepared by scraping the cells into modified RIPA buffer (50 mM Tris HCl (pH 7.4), 150 mM NaCl, 0.25% Sodium deoxycholate, 1% Igepal, protease inhibitors 1 mM EDTA, 1× Pefabloc, 1× protease inhibitor cocktail, 1 mM Na3VO4, 1 mM NaF). All protein samples were separated by SDS-PAGE (10/12%) and electrophoretically transferred onto nitrocellulose membrane. All primary antibodies were incubated overnight at 4° C.: anti-phospho mTOR (Ser 2448) and anti-p70^S6K (Thr 389) (Cell Signaling Technologies, UK), anti-Beclin-1 (BD Biosciences, UK) and anti-LC3 (Medical & Biological Laboratories, Japan). The membranes were incubated with the relevant horseradish peroxidase conjugated secondary antibodies (DakoCytomation, Dublin) and detected by chemiluminescence (ECL Amersham, UK).
(§5) To visualize and quantify the formation of autophagic vesicles, the green fluorescent protein (GFP)-LC3 (pEGFP-LC3) expression vector, kindly supplied by Dr. T. Yoshimori (National Institute of Genetics, Japan) was used. Cells were transiently transfected with the Amaxa electroporation system according to the supplier's protocol. Twenty-four hours post transfection, cells were treated with 5-FU and/or Cisplatin, fixed in 4% paraformaldehyde in PBS and transferred onto slides using a non-fluorescent fixative for analysis by fluorescence microscopy. Alternatively, Western Blot analysis was used to assess the expression and processing of LC3. […] The membrane sequestered, lipid-conjugated form of LC3-II remains with the autophagosome membrane after the vesicle has formed, and levels of both isoform are detected by Western Blot. Transfection efficiency was consistent for a given cell line, OE33 and KYSE450 cell lines (˜60-70%) compared to OE19 and OE21 cell lines (˜30%).

LC3 in OE33 cells = assay: as above; assay type: cell-based, human
Protocol: as §4, §5

LC3 in KYSE450 cells = assay: as above; assay type: cell-based, human
Protocol: as §4, §5

OE19 [5] = assay: Evaluation of cell death morphology by light microscopy; assay type: cell-based, human
Protocol: as §1

OE33 [6] = assay: as above; assay type: cell-based, human; details: 5-FU (50 μM) or cisplatin (40 μM), 48 hours
Protocol: as §1

[7] = test system: active caspase-3 in OE21 cells; assay: Active caspase-3 by flow cytometry; assay type: cell-based, human; details: 48 hours after treatment
Protocol: (§6) To examine control and 5-Fluorouracil treated cells for evidence of caspase activity cells were processed by trypsinization, 48 hours after treatment. […] This was detected with an anti rabbit FITC conjugated secondary antibody, and samples were analyzed by FACScan at 530 nm (FL-1). Percentages indicate the proportion of cells with active caspase-3, detected as an increase in the number of FITC (FL-1) labelled cells.

[8] = test system: active caspase-3 in OE19 cells; assay: Active caspase-3 by flow cytometry; assay type: cell-based, human; details: 48 hours after treatment
Protocol: as §6

[9] = test system: active caspase-3 in KYSE450 cells; assay: Active caspase-3 by flow cytometry; assay type: cell-based, human; details: 48 hours after treatment, range of concentrations
Protocol: as §6

[10] = test system: active caspase-3 in OE33 cells; assay: Active caspase-3 by flow cytometry; assay type: cell-based, human; details: 48 hours after treatment
Protocol: as §6

KYSE450 [11] = assay: Monodansylcadaverine (MDC)-labelled vacuoles; assay type: cell-based, human; details: 25 μM
Protocol: (§7) MDC is an autofluorescent weak base that accumulates in acidic lysosomal vacuoles, showing high selectivity for autophagosomes, due to the high level of unhydrolyzed membrane lipids from engulfed organelles, which enhance MDC fluorescence. Cells were incubated with 0.1 mM MDC in PBS at 37° C. for 10 minutes (Biederbick et al., 1995), washed and immediately analyzed by fluorescent microscopy.

OE19 [12] = assay: Monodansylcadaverine (MDC)-labelled vacuoles; assay type: cell-based, human; details: 25 μM
Protocol: as §7

OE33 [13] = assay: Monodansylcadaverine (MDC)-labelled vacuoles; assay type: cell-based, human; details: 25 μM
Protocol: as §7

OE21 [14] = assay: Monodansylcadaverine (MDC)-labelled vacuoles; assay type: cell-based, human; details: 25 μM
Protocol: as §7

KYSE450 [15] = assay: Mitochondrial depolarization, JC-1 probe; assay type: cell-based, human; details: 48 hour treatment
Protocol: (§8) Mitochondrial membrane potential was determined using the JC-1 probe (Molecular Probes). In non-apoptotic cells, JC1 accumulates as aggregates in the mitochondria, which stain red (FL2; 590 nm). At the onset of apoptosis, a loss of mitochondrial membrane potential (ΔΨm) releases the aggregated JC1, returning it to its monomeric form, which stains the cytosol green (FL1; 530 nm). Therefore, fluorescence of the JC-1 probe in the FL-2 channel decreases as mitochondrial membrane integrity is lost, while the fluorescence in FL-1 channel increases. Cells were incubated in JC1 (7.5 μg/ml) at 37° C. for 15 mins, and washed prior to analysis by flow cytometry (FACScan, Becton Dickinson). Percentages denote the proportion of cells with depolarised mitochondria following 48 hour incubation with 5-Fluorouracil and represent at least three independent experiments.

OE19 [16] = assay: Mitochondrial depolarization, JC-1 probe; assay type: cell-based, human; details: 48 hour treatment
Protocol: as §8

OE33 [17] = assay: Mitochondrial depolarization, JC-1 probe; assay type: cell-based, human; details: 48 hour treatment
Protocol: as §8

OE21 [18] = assay: Mitochondrial depolarization, JC-1 probe; assay type: cell-based, human; details: 48 hour treatment
Protocol: as §8

OE19 [19] = assay: MTT viability and recovery assay; assay type: cell-based, human; details: 10 μM cisplatin, 48 hours
Protocol: as §2, §3

OE33 [20] = assay: MTT viability and recovery assay; assay type: cell-based, human; details: 10 μM cisplatin, 48 hours
Protocol: as §2, §3

LC3 in OE21 cells = assay: LC3 / GFP-LC3 processing and distribution (Western blot, fluorescence microscopy); assay type: cell-based, human; details: 5-FU or cisplatin (images not shown)
Protocol: as §4, §5

[21] = 10 nM, 24 and 48 hours post treatment
[22] = 5-FU (50 μM) or cisplatin (40 μM), 48 hours
[23] = 40 μM cisplatin, 48 hours (FIG. 1c)

COC(=O)C[C@H](NC(=O)[C@H](C)NC(=O)[C@@H](NC(=O)OCc1ccccc1)C(C)C)C(=O)CF [zVAD-fmk] (Cbz-Val-Ala-Asp(OMe)-CH2F)
inhibition of apoptosis induced by 5-FU (OE21 [1]; zVAD-fmk (25 μM) for 2 hours prior to 5-FU treatment): completely inhibited

CO/C1=C\C(C)=C\[C@@H](C)[C@@H](O)[C@@H](C)C/C(C)=C/C=C/[C@H](OC)[C@@H]([C@@H](C)[C@@H](O)[C@H](C)[C@@]2(O)C[C@@H](O)[C@H](C)[C@@H](C(C)C)O2)OC1=O [Bafilomycin, Bafilomycin A1]
morphology (KYSE450 [2]; Bafilomycin 10.0 nM alone or with 5-FU (50 μM)): significant levels of vesicular accumulation
cytotoxicity (MTT) (KYSE450 [3]; Bafilomycin 100 nM): cytotoxic alone
viability (MTT) (KYSE450 [3]; Bafilomycin 10-100 nM): reduction in MTT
cell death (MTT) (OE21 [4]): induced significant cell death
GFP-LC3 distribution (fluorescence microscopy) (LC3 in OE19 cells; 10 nM bafilomycinA1, 24 and 48 hours): accumulation of GFP-LC3 tagged autophagosomes
levels of endogenous LC3 (Western blot) (LC3 in OE33 cells; [21]): induced an accumulation in the levels of endogenous LC3
levels of endogenous LC3 (Western blot) (LC3 in KYSE450 cells; [21]): induced an accumulation in the levels of endogenous LC3
morphology (OE21 [1]; Bafilomycin 1.0 nM alone or with 5-FU (30 μM)): significant levels of vesicular accumulation

N.N.[Cl][Pt][Cl] [cisplatin]
cell death morphology (KYSE450 [2]; [22]): predominantly non-apoptotic morphology
apoptosis (OE19 [5]; [23]): 0.5%
non-apoptotic cell death (OE19 [5]; [23]): 38%
cell death morphology (OE19 [5]; [22]): predominantly non-apoptotic morphology
cell death morphology (OE33 [6]): predominantly apoptotic cell death morphology
active caspase-3 [7]: displayed active caspase-3
active caspase-3 [8]: do not show caspase-3 activity
active caspase-3 [9]: do not show caspase-3 activity
active caspase-3 [10]: displayed active caspase-3
cell viability (MTT) (KYSE450 [3]; 10 μM cisplatin, 48 hours): only marginally affected
MDC staining pattern (KYSE450 [11]): accumulation of MDC (bright blue punctate staining) throughout the cytoplasm
MDC staining pattern (OE19 [12]): accumulation of MDC (bright blue punctate staining) throughout the cytoplasm
MDC staining pattern (OE33 [13]): MDC staining patterns are diffuse
MDC staining pattern (OE21 [14]): MDC staining patterns are diffuse
mitochondrial depolarization (JC-1) (KYSE450 [15]): do not show caspase-3 activity or mitochondrial membrane depolarization
mitochondrial depolarization (JC-1) (OE19 [16]): do not show caspase-3 activity or mitochondrial membrane depolarization
mitochondrial depolarization (JC-1) (OE33 [17]): mitochondrial depolarization
mitochondrial depolarization (JC-1) (OE21 [18]): mitochondrial depolarization
cell viability (MTT) (OE19 [19]): only marginally affected
cell viability (MTT) (OE33 [20]): significant effects on cell viability
cell viability (MTT) (OE21 [4]; 10 μM cisplatin, 48 hours): significant effects on cell viability
GFP-LC3 distribution (fluorescence microscopy) (LC3 in OE19 cells; 5-FU (25 & 50 μM) or cisplatin (10 & 25 μM)): Redistribution of GFP-LC3 from a diffuse cytosolic to a punctate autophagosome-associated pattern; also recorded: bright punctate patterns of GFP-LC3 fluorescence
GFP-LC3 distribution (fluorescence microscopy) (LC3 in OE33 cells; 5-FU or cisplatin (images not shown)): Diffuse cytoplasmic localization of GFP-LC3
GFP-LC3 distribution (fluorescence microscopy) (LC3 in KYSE450 cells; 5-FU or cisplatin (data not shown)): Redistribution of GFP-LC3 from a diffuse cytosolic to a punctate autophagosome-associated pattern
GFP-LC3 distribution (fluorescence microscopy) (LC3 in OE21 cells): Diffuse cytoplasmic localization of GFP-LC3
apoptotic cell death (OE21 [1]; 40 μM cisplatin, 48 hours): 31%
non-apoptotic cell death (OE21 [1]; 40 μM cisplatin, 48 hours): 3%
cell death morphology (OE21 [1]; [22]): predominantly apoptotic cell death morphology

CCOC(=O)C1=C(N)Oc2ccc(Br)cc2C1C(C#N)C(=O)OCC (stereo not drawn) [HA14-1]
morphology (KYSE450 [2]; HA14-1 (5 μM) and/or 5-FU (50 μM), 24 hours): rarely causes apoptosis
morphology (KYSE450 [2]; HA14-1 (5 μM) and/or 5-FU (50 μM), 24 hours, listed as HA14-I): the induction of apoptosis is observed, but at very low levels
morphology (KYSE450 [2]; HA14-1 (10 μM) without and with 5-FU (50 μM), 24 hours): the induction of apoptosis is apparent, but again at low levels
morphology (KYSE450 [2]; HA14-1 (20 μM), 24 hours): rarely causes apoptosis
morphology (KYSE450 [2]; HA14-1 (20 μM), 24 hours, listed as HA14-I): the induction of apoptosis is apparent, but again at low levels
morphology (KYSE450 [2]; HA14-1 (30 μM), 24 hours): apoptotic cells are visible
morphology (KYSE450 [2]; HA14-1 (30 μM), 24 hours, listed as HA14-I): induced clear levels of apoptotic cell death
morphology (KYSE450 [2]; HA14-1 (30 μM), 48 hours): apoptotic cells are visible
morphology (KYSE450 [2]; HA14-1 (30 μM), 48 hours, listed as HA14-I): induced clear levels of apoptotic cell death

Cn1cnc(N)c2ncnc1-2 [3-MA, 3-Methyladenine]
morphology (KYSE450 [2]; 3-MA (10.0 μM) without and with 5-FU (50 μM), 48 hours): did not significantly affect morphology
morphology (OE21 [1]; 3-MA without and with 5-FU (30 μM), 48 hours): did not significantly affect morphology
